Results published in paper PMC7617869, “Molecular glues that inhibit deubiquitylase activity and inflammatory signaling” (Nature Structural & Molecular Biology, 2025).
“And” between values parts separate entries of the source, which are not always exact repeats. Equal values may be shown once.

Legend:
trypsin = assay: Trypsin IQF diubiquitin selectivity assay; type: biochemical; details: for TRYPSIN, normalised activity (Ext. 1a): two replicate columns
Method: (§1) BRISC DUB activity was measured at room temperature using 1 nM BRISC and 500 nM IQF diubiquitin K63 substrate (LifeSensors, DU6303) in the presence of DMSO and compounds at 10 μM (final concentrations). Assays were performed in 384-well black flat-bottom low-flange plates (Corning, 35373) in buffer containing 50 mM HEPES–NaOH pH 7.0, 100 mM NaCl, 1 mg ml^−1 BSA, 1 mM DTT and 0.03% v/v Brij-35. Then, 10 μl of twofold concentrated enzyme stock was dispensed, followed by transfer of 200 nl of compounds (1 mM stock) using a 384-pin tool and a 15-min incubation at room temperature. Then, 10 μl of twofold concentrated substrate stock was added and the reaction was monitored by measuring fluorescence intensity (excitation, 540 nm; emission, 580 nm) after 20-min incubation at room temperature and ~50% of substrate was consumed. Orthogonal assays for verification of H20 and P12 hit compounds using USP2 (100 nM) and trypsin (125 nM) were performed in identical conditions.
(§2) IQF assays were performed in DUB reaction buffer containing 50 mM HEPES–NaOH pH 7.0, 100 mM NaCl, 0.1 mg ml^−1 BSA, 1 mM DTT and 0.03% v/v Brij-35. […] The final concentration of BRISC WT, all BRISC mutants, HsBRISCΔLoop, MmBRISC and DrBRISCΔNΔC was 1 nM. Other enzymes were tested at the following concentrations: 5 nM ARISC (FL), 10 nM CfBRISCΔNΔC, 250 nM AMSH* (ref. [43]), 500 nM USP2 and 1 μM trypsin (Sigma, 9002-07-7). For Michaelis–Menten experiments, 1 nM BRISC with 0–1 μM IQF K63-linked diubiquitin substrate was used. Michaelis–Menten analyses and Lineweaver–Burk plots were calculated using GraphPad Prism (version 9.0).
(§3) To assess enzymatic activity, BRISC complexes were diluted to concentrations between 1 nM and 50 nM. […] Then, 20-μl enzyme reactions were carried out in 384-well black flat-bottom low-flange plates (Corning, 35373). DUB activity was measured using IQF K63-linked diubiquitin (LifeSensors, DU6303) at 50 nM. Cleaved diubiquitin was monitored by measuring fluorescence intensity (excitation, 544 nm; emission, 575 nm; dichroic mirror, 560 nm). Fluorescence intensity was measured every minute for 30 min at 30 °C. Fluorescence intensity units were plotted against time to generate a linear reaction progress curve, where the initial velocity (V0) corresponds to the gradient of the curve (typically achieved within 15 min). IC50 values were calculated using the GraphPad Prism (version 9.0) built-in dose–response equation for inhibitor concentration versus response (variable slope).

USP2 = target: T1, USP2 (Homo sapiens, UniProt O75604); assay: USP2 IQF diubiquitin selectivity assay; type: biochemical; details: for USP2, normalised activity (Ext. 1a): two replicate columns
T1 construct: His (N, cleaved yes); host or cells: Escherichia coli BL21(DE3)
T1 sequence (O75604 258-605 limits assumed): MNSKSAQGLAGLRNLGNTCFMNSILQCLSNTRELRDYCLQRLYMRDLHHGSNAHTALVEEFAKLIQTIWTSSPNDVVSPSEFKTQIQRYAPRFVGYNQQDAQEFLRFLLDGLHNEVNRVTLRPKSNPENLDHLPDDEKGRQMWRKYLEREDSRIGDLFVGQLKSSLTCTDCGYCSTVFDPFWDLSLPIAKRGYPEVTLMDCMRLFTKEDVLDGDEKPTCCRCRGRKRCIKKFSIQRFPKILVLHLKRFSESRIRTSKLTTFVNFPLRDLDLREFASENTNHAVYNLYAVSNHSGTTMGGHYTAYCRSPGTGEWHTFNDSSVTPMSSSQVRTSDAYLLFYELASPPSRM
Method: as §1, §2, §3

BRISC = target: T2, BRISC (Homo sapiens, UniProt P46736+Q15018+Q9NXR7); assay: Compound library screening and hit validation (IQF diubiquitin, 1 nM BRISC); type: biochemical; details: for BRISC, normalised activity (Ext. 1a): two replicate columns
T2 construct: made in house; host or cells: Spodoptera frugiperda (Sf9) insect cells, MultiBac
Method: as §1, with “Assays” for “BRISC DUB activity was measured at room temperature using 1 nM BRISC and 500 nM IQF diubiquitin K63 substrate (LifeSensors, DU6303) in the presence of DMSO and compounds at 10 μM (final concentrations). Assays”

[1] = tested on: IFN-stimulated response elements (ISRE) in THP-1 cells; assay: THP-1 ISRE luciferase reporter, IFNα2 stimulation; type: cell-based, human
Method: (§4) THP-1 in vitro experiments
(§5) THP-1-DualTM cells (InvivoGen), derived from a human monocytic cell line, isolated from a patient with acute monocytic leukaemia, were cultured as per manufacturer’s guidance. Cells were seeded at 1x10^6 cells/mL in RPMI1640 media containing 10% fetal bovine serum (FBS), 1% penicillin-streptomycin (PS) (Gibco Laboratories) with DMSO (0.1%) (control) or in media containing JMS-175- […]
(§6) ng/mL) (Merck Life Science), ODN 2216 (1 µM) (Miltenyi Biotec), or Poly:IC (1 µg/mL) (InvivoGen).
(§7) Tofacitinib (Cambridge Biosciences) at 0.4 µM was used for comparison against a known JAK inhibitor.
(§8) Cells were centrifuged at 300 g for 5 minutes. Supernatant was removed and subjected to simultaneous study of the NF -κB pathway, by monitoring the activity of secreted alkaline phosphatase reporter (SEAP), and the IRF pathway, by assessing the activity o f a secreted Lucia luciferase using QUANTI - Blue ™ Solution and QUANTI -Luc™ 4 Lucia/Gaussia (InvivoGen), respectively, as per manufacturer’s instructions. Pelleted cells were used for FACS analysis using IFNα/β R1 APC-conjugated antibody or isotype control (Biotechne, FAB245A and IC002A), or unstained staining procedure with and without Zombie GreenTM (Biolegend). Samples were analysed using CytoFlex LX (Beckman) (50,000 live cells per condition). Median fluorescence intensity for APC channel gated on single cell live cells was analysed and compared as a percentage to control (no stimulation condition). […]

[2] = tested on: ISRE in THP-1 cells (TLR3 agonist polyI:C); assay: THP-1 ISRE luciferase reporter, polyI:C stimulation; type: cell-based, human; details: polyI:C 1 µg/mL, 0.4 μM, 16 h
Method: as §4, §5, §6, §7, §8

[3] = tested on: NF-κB pathway in THP-1 cells; assay: THP-1 NF-κB pathway SEAP reporter, lipopolysaccharide stimulation; type: cell-based, human; details: LPS + compound, three replicates
Method: as §4, §5, §6, §7, §8

[4] = tested on: ISRE in THP-1 cells (TLR9 agonist ODN 2216); assay: THP-1 ISRE luciferase reporter, ODN 2216 stimulation; type: cell-based, human; details: ODN 2216 1 µM, 0.4 μM, 16 h
Method: as §4, §5, §6, §7, §8

THP-1 cells = assay: THP-1 live cell percentage; type: cell-based; details: male, human, 16 h, 0.4 µM
Method: as §4, §5, §6, §7, §8

[5] = tested on: IFNAR1 surface levels in THP-1 cells; assay: THP-1 IFNAR1 surface levels (FACS); type: cell-based, human
Method: as §4, §5, §6, §7, §8

[6] = log [compound (μM)] 0.1938, listed as P12
[7] = log [compound (μM)] 0.4949, listed as P12
[8] = log [compound (μM)] 0.7959, listed as P12
[9] = log [compound (μM)] 1.0969, listed as P12
[10] = log [compound (μM)] 1.3979, listed as P12
[11] = log [compound (μM)] 1.6990, listed as P12
[12] = log [compound (μM)] 2.0000, listed as P12
[13] = log [compound (μM)] -0.1072, listed as P12
[14] = log [compound (μM)] -0.4082, listed as P12
[15] = log [compound (μM)] -0.7093, listed as P12
[16] = log [compound (μM)] -1.0103, listed as P12
[17] = log [compound (μM)] -2.0103, normalisation point

Nc1ccc(C(=O)Nc2cccc(-c3nc(N4CCOCC4)c4oc5ncccc5c4n3)c2)cn1 [YM201636, reference compound]
inhibition of trypsin (trypsin; IQF K63 diubiquitin substrate): inhibited | TRYPSIN, normalised activity (Ext. 1a) (trypsin; [6]): 0.9684 and 0.9837 | TRYPSIN, normalised activity (Ext. 1a) (trypsin; [7]): 0.8434 and 0.8923 | TRYPSIN, normalised activity (Ext. 1a) (trypsin; [8]): 0.6993 and 0.7044 | TRYPSIN, normalised activity (Ext. 1a) (trypsin; [9]): 0.6731 and 0.7139 | TRYPSIN, normalised activity (Ext. 1a) (trypsin; [10]): 0.4990 and 0.5130 | TRYPSIN, normalised activity (Ext. 1a) (trypsin; [11]): 0.3403 and 0.4535 | TRYPSIN, normalised activity (Ext. 1a) (trypsin; [12]): 0.3318 and 0.3209 | TRYPSIN, normalised activity (Ext. 1a) (trypsin; [13]): 1.0347 and 0.9747 | TRYPSIN, normalised activity (Ext. 1a) (trypsin; [14]): 1.0259 and 0.9266 | TRYPSIN, normalised activity (Ext. 1a) (trypsin; [15]): 0.9472 and 0.9474 | TRYPSIN, normalised activity (Ext. 1a) (trypsin; [16]): 0.9224 and 0.9184 | TRYPSIN, normalised activity (Ext. 1a) (trypsin; [17]): 1.0000 | inhibition of USP2 (USP2; IQF K63 diubiquitin substrate): inhibited | USP2, normalised activity (Ext. 1a) (USP2; [6]): 0.9446 and 0.9072 | USP2, normalised activity (Ext. 1a) (USP2; [7]): 0.7366 and 0.8095 | USP2, normalised activity (Ext. 1a) (USP2; [8]): 0.5989 and 0.5952 | USP2, normalised activity (Ext. 1a) (USP2; [9]): 0.4578 and 0.4777 | USP2, normalised activity (Ext. 1a) (USP2; [10]): 0.2821 and 0.3159 | USP2, normalised activity (Ext. 1a) (USP2; [11]): 0.1157 and 0.1340 | USP2, normalised activity (Ext. 1a) (USP2; [12]): 0.0697 and 0.0548 | USP2, normalised activity (Ext. 1a) (USP2; [13]): 0.9974 and 0.9861 | USP2, normalised activity (Ext. 1a) (USP2; [14]): 1.0145 and 0.9995 | USP2, normalised activity (Ext. 1a) (USP2; [15]): 1.0193 and 1.0736 | USP2, normalised activity (Ext. 1a) (USP2; [16]): 0.9978 and 1.0361 | USP2, normalised activity (Ext. 1a) (USP2; [17]): 1.0000 | inhibition of BRISC, hit validation dose response (BRISC; BRISC 1 nM): inhibited | BRISC, normalised activity (Ext. 1a) (BRISC; [6]): 0.9184 and 0.9164 | BRISC, normalised activity (Ext. 1a) (BRISC; [7]): 0.8260 and 0.8472 | BRISC, normalised activity (Ext. 1a) (BRISC; [8]): 0.7220 and 0.6802 | BRISC, normalised activity (Ext. 1a) (BRISC; [9]): 0.5475 and 0.6138 | BRISC, normalised activity (Ext. 1a) (BRISC; [10]): 0.4196 and 0.4274 | BRISC, normalised activity (Ext. 1a) (BRISC; [11]): 0.2277 and 0.3017 | BRISC, normalised activity (Ext. 1a) (BRISC; [12]): 0.1348 and 0.1662 | BRISC, normalised activity (Ext. 1a) (BRISC; [13]): 0.9841 and 0.9959 | BRISC, normalised activity (Ext. 1a) (BRISC; [14]): 1.0145 and 0.9950 | BRISC, normalised activity (Ext. 1a) (BRISC; [15]): 0.9264 and 1.0022 | BRISC, normalised activity (Ext. 1a) (BRISC; [16]): 0.9725 and 0.9468 | BRISC, normalised activity (Ext. 1a) (BRISC; [17]): 1.0000

C[C@@H]1CCN(C(=O)CC#N)C[C@@H]1N(C)c1ncnc2[nH]ccc12 [tofacitinib, reference compound]
ISRE luciferase reporter signal (Fig. 5a) ([1]; IFN + compound, replicate values): 1776.67 and 1732 and 1959.33 and 2178.33 | ISRE relative expression ([1]; hIFNα2 25 ng/ml, 0.4 μM, 16 h): potent effect | ISRE luciferase signal in THP-1 supernatant [2]: not reduced | ISRE luciferase signal in THP-1 supernatant ([2]; listed as Tofacitinib): 199.667 and 316.333 and 317.333 | NF-κB SEAP reporter signal [3]: 1.232 and 1.181 and 1.209 | ISRE luciferase signal in THP-1 supernatant [4]: not reduced | ISRE luciferase signal in THP-1 supernatant ([4]; listed as Tofacitinib): 198.333 and 276 and 283.333 | percentage of live cells (THP-1 cells): 98.18% | IFNAR1 surface levels (Fig. 5h) ([5]; IFN + compound, No IFN = 100): 59.2689 and 88.3889 and 79.9066 | IFNAR1 surface levels ([5]; THP-1, hIFNα2 25 ng/ml, 0.4 μM, 16 h): no significant reduction
